What all share (assay type): cell-based, human
In data set [1] the test system is hCMEC/D3 cells. Kind of data set: Influence of ligands on hCMEC/D3 permeation of SLS-phage. On the procedure: Using the hCMEC/D3 cells, influences by various ligands (vitronectin, fibrinogen, RGD peptide, transferrin) on the BBB permeability of the phage presenting the peptide SLSHSPQ (SEQ ID NO: 1) of the present invention were tested.
In the +vitronectin group, human vitronectin (R&D Systems, Inc.) was added to give 20 μg/mL. In the +fibrinogen group, human fibrinogen (Wako) was added to give 50 μg/mL. In the +RGD group, an RGD peptide (SIGMA) was added to give 100 μM. In the +holo-Tf (transferrin) group, holo-Tf (SIGMA) was added to give 100 μM.

The test system of data set [2] is hCMEC/D3 cells. The experiment in a line: Influence of monensin on hCMEC/D3 permeation of SLS-phage. The settings on record: monensin-containing medium for 18 hours, concentration-dependent. On the procedure: The medium at the luminal side and the abluminal side was replaced by a monensin-containing medium, and culture was further performed for 18 hours.
The subject of data set [3] is hCMEC/D3 cells. Kind of data set: Uptake of FAM-labeled cyclic peptide into hCMEC/D3 cells (confocal microscopy). The settings on record: 10 µM, 37° C., 10, 30 and 60 minutes. On the procedure: A FAM-labeled synthetic cyclic peptide having the SLSHSPQ (SEQ ID NO: 1) sequence was prepared by requesting Scrum Co., Ltd. A peptide having the sequence of […] (SEQ ID NO: 5), which contains […] (SEQ ID NO: 6), was chemically synthesized, and then a cyclic peptide was formed by forming a disulfide bond between the cysteine residues. Then, a lysine residue was added to the C-terminal and FAM was further bonded to prepare a FAM-labeled cyclic peptide.
The FAM-labeled synthetic cyclic peptide SLSHSPQ (SEQ ID NO: 1) (10 µM) was added to the cells, and incubated on a 37° C. hot plate for 10, 30 and 60 minutes. These were washed with 500 μL of cold PBS three times, and fixed with 4% PFA for 10 minutes. […] (registered trademark) Mounting Medium with DAPI was dropped, then, a cover glass was place thereon to enclose it, and FAM and DAPI were observed by a confocal microscopy. […] From this, it was confirmed that the synthetic cyclic peptide SLSHSPQ (SEQ ID NO: 1) is internalized in the cell.

In data set [4] the test system is hCMEC/D3 cells. The experiment in a line: Influence on tight junction (TEER) of hCMEC/D3 cells. The settings on record: 0 to 100 μM, until 48 hours. On the procedure: The synthetic cyclic peptide SLSHSPQ (SEQ ID NO: 1) (0 to 100 μM) before labeling prepared in Example 3 was added to the cells, and they were incubated in a CO2 incubator at 37° C. The influence on tight junction was evaluated by measuring TEER over time until 48 hours later.

In data set [5] the test system is hCMEC/D3 cells. Kind of data set: Cytotoxicity (cell counting kit-8) in hCMEC/D3 cells. Conditions: 0 to 100 μM, 24 and 48 hours. On the procedure:
The synthetic cyclic peptide SLSHSPQ (SEQ ID NO: 1) (0 to 100 μM) was added to the cells, and incubated in a CO2 incubator at 37° C. The cell viability after 24 and 48 hours was calculated using the cell counting kit-8.
Background: Formazan colour is commonly taken as a measure of viable cells.

Positions of bridges follow the written chain, without caps; N, C: chain ends. Residues, ends and D or L forms follow the SMILES beside them.

Regarding RGD peptide, the “effect on permeation of the SLS-phage” value with hCMEC/D3 cells [1] (ligand 100 μM) was “did not inhibit”.

For the molecule `CC[C@@]1([C@@H]2O[C@@H]([C@H]3O[C@@](O)(CO)[C@H](C)C[C@@H]3C)C[C@@H]2C)CC[C@H]([C@]2(C)CC[C@]3(C[C@H](O)[C@@H](C)[C@@H]([C@@H](C)[C@@H](OC)[C@H](C)C(=O)O)O3)O2)O1` [monensin], in the data set with hCMEC/D3 cells [2], the “effect on hCMEC/D3 cell permeation amount of the SLS-phage” value is “increased”.

holo-transferrin: the “effect on permeation of the SLS-phage” value with hCMEC/D3 cells [1] (ligand 100 μM) is listed as “promoted”.

For fibrinogen, the “effect on permeation of the SLS-phage” value in the data set on hCMEC/D3 cells [1] (human fibrinogen 50 μg/mL) is given as “did not inhibit”.

For the molecule “FAM-labeled synthetic cyclic peptide SLSHSPQ: Cyclic ACSLSHSPQCGGGS with lysine residue added to the C-terminal and FAM bonded (not fully specified; cyclic; C-terminal lysine added; FAM label)”, in the data set with hCMEC/D3 cells [3], the “uptake into hCMEC/D3 cells” value is given as “taken up into the cells”.

`CC(C)C[C@@H]1NC(=O)[C@H](CO)NC(=O)[C@@H](NC(=O)[C@H](C)N)CSSC[C@@H](C(=O)NCC(=O)NCC(=O)NCC(=O)N[C@@H](CO)C(=O)O)NC(=O)[C@H](CCC(N)=O)NC(=O)[C@@H]2CCCN2C(=O)[C@H](CO)NC(=O)[C@H](Cc2c[nH]cn2)NC(=O)[C@H](CO)NC1=O` [synthetic cyclic peptide SLSHSPQ] (H-ACSLSHSPQCGGGS-OH; disulfide 2-10): in the data set on hCMEC/D3 cells [4], the “influence on tight junction (TEER)” value is recorded as “did not reduce the tight junction”. In addition, the “cytotoxicity (cell viability)” value with hCMEC/D3 cells [5] was “no cytotoxicity”.

B1: vitronectin (protein, UniProt P04004 20-478, looked up)
Vitronectin: DQESCKGRCTEGFNVDKKCQCDELCSYYQSCCTDYTAECKPQVTRGDVFTMPEDEYTVYDDGEEKNNATVHEQVGGPSLTSDLQAQSKGNPEQTPVLKPEEEAPAPEVGASKPEGIDSRPETLHPGRPQPPAEEELCSGKPFDAFTDLKNGSLFAFRGQYCYELDEKAVRPGYPKLIRDVWGIEGPIDAAFTRINCQGKTYLFKGSQYWRFEDGVLDPDYPRNISDGFDGIPDNVDAALALPAHSYSGRERVYFFKGKQYWEYQFQHQPSQEECEGSSLSAVFEHFAMMQRDSWEDIFELLFWGRTSAGTRQPQFISRDWHGVPGQVDAAMAGRIYISGMAPRPSLAKKQRFRHRNRKGYRSQRGHSRGRNQNSRRPSRATWLSLFSSEESNLGANNYDDYRMDWLVPATCEPIQSVFFFSGDKYYRVNLRTRRVDTVDPPYPRSIAQYWLGCPAPGHL
notes: human vitronectin (R&D Systems, Inc.)
For B1, the “effect on permeation of the SLS-phage” value in the data set on hCMEC/D3 cells [1] (human vitronectin 20 μg/mL) is “inhibited”.

The record behind these values is US12384816B2, “Blood-brain barrier permeable peptide” (NATIONAL UNIVERSITY CORPORATION KUMAMOTO UNIVERSITY, priority 2018, dated 2025).
